Literature values, collected in US6579851B2, “Effects of glucagon-like peptide-1 (7-36) on antro-pyloro-duodenal motility” (Amylin Pharmaceuticals, Inc., priority 2000, dated 2003).

Columns and labels:
[1] = in vivo; cited from earlier work
gastroduodenal motility = conditions: cited from earlier work

Glucagon
Dose at which side effects (nausea and vomiting) can appear [1]: 1 mg | Effect on contractions in the antrum (gastroduodenal motility; doses as high as 2 mg): does not reduce contractions in the antrum | Minimally effective dose for reduction in gastroduodenal motility (gastroduodenal motility; in vivo): 0.5 mg
